pEC50: −log10 of the molar value. Activity calls are given as the source filed them. The calls are words filed in the database; no cut-off is given here.
What was measured:
[1] = molecular target: T1, Butyrophilin subfamily 3 member A1 (Homo sapiens, UniProt O00481); test: Activation of BTN3A1 in human PBMC-derived Vgamma9Vdelta2 T cells assessed as induction of interferon gamma production in response to K562 cells preincubated for 4 hrs […] followed by 11 days incubation post compound wash out with subsequent coculturing with Vgamma9Vdelta2 T cells for 20 hrs by ELISA; type: cell-based
Target sequence in this assay (O00481 whole entry, the tested form may be a part): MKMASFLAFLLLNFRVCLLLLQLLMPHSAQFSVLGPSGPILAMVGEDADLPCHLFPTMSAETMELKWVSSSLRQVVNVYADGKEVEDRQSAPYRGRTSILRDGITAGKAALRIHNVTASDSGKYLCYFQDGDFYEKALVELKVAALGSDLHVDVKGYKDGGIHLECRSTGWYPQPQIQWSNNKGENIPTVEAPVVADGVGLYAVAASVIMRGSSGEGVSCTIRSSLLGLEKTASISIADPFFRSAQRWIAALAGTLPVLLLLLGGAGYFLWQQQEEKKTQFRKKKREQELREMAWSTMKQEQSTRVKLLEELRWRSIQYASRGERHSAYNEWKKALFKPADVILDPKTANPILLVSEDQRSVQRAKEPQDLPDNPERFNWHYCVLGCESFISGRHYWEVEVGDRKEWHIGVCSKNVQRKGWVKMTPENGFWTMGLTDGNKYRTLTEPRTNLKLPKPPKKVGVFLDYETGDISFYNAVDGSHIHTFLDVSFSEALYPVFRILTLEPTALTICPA

[2] = molecular target: T1, Butyrophilin subfamily 3 member A1; test: Binding affinity to BTN3A1 intracellular domain (unknown origin) at 250 uM by isothermal titration calorimetry
Target sequence in this assay (O00481 30-513 limits assumed): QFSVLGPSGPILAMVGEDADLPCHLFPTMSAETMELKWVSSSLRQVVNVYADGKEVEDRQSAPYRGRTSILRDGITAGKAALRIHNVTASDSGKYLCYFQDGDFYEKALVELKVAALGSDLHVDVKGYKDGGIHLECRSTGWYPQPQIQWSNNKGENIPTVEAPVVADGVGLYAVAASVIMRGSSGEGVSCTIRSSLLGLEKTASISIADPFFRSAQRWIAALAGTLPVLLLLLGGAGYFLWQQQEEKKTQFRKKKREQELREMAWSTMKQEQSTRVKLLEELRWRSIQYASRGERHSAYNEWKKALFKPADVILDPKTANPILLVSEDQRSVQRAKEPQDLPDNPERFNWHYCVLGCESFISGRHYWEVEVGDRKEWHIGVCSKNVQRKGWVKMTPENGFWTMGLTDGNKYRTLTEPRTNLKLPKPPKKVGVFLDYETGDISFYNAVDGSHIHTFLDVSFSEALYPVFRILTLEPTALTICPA

[3] = molecular target: T1, Butyrophilin subfamily 3 member A1; test: Inhibition of HMBPP binding to BTN3A1 intracellular domain (unknown origin) at compound to HMBPP molar ratio of 100 by isothermal titration calorimetry
Target sequence in this assay (O00481 30-513 limits assumed): as above

[4] = Activation of BTN3A1 in human PBMC-derived Vgamma9Vdelta2 T cells assessed as induction of interleukin 2 stimulated cell proliferation by measuring increase in CD3 positive cells incubated for 3 days followed by 11 days incubation post compound wash out with subsequent stimulation with IL-2 every 3 days measured after 14 days by flow cytometry

Structure (SMILES)	pEC50 [1]	Activity [2]	other results
C/C(=C\CCP(=O)(COC(=O)C(C)(C)C)Oc1cccc2ccccc12)CO (stereo unspecified)	8.05		
C/C(=C\CCP(=O)(COC(=O)C(C)(C)C)OCOC(=O)C(C)(C)C)CO (stereo unspecified)	7.62		
C/C(=C\CCP(=O)(O)Oc1cccc2ccccc12)CO		inactive	inhibition [3]: inactive
C/C(=C\CCP(=O)(O)Oc1ccccc1)CO		inactive	
C/C(=C\CCP(=O)(O)O)CO			pEC50 [4]: 5.40

— ChEMBL document CHEMBL4130450, “Mixed Aryl Phosphonate Prodrugs of a Butyrophilin Ligand” (ACS Med Chem Lett, 2017)
